Measurements reported in patent US7256286B2, “Bryostatin analogues, synthetic methods and uses” (The Board of Trustees of the Leland Stanford Junior …, priority 1999, dated 2007).

Legend:
CCRF-CEM = experiment: NCI human cancer cell line growth inhibition: CCRF-CEM; format: cell-based; settings: Leukemia
HL-60(TB) = experiment: cells; format: cell-based, human
K-562 = experiment: NCI human cancer cell line growth inhibition: K-562; format: cell-based; settings: K-562, Leukemia
MOLT-4 = experiment: NCI human cancer cell line growth inhibition: MOLT-4; format: cell-based; settings: MOLT-4, Leukemia
RPMI-8226 = experiment: NCI human cancer cell line growth inhibition: RPMI-8226; format: cell-based; settings: RPMI-8226, Leukemia
SR = experiment: NCI human cancer cell line growth inhibition: SR; format: cell-based; settings: Leukemia
A549/ATCC = experiment: NCI human cancer cell line growth inhibition: A549/ATCC; format: cell-based; settings: NSC Lung
EKVX = experiment: NCI human cancer cell line growth inhibition: EKVX; format: cell-based; settings: NSC Lung
HOP-62 = experiment: NCI human cancer cell line growth inhibition: HOP-62; format: cell-based; settings: HOP-62, NSC Lung
HOP-92 = experiment: NCI human cancer cell line growth inhibition: HOP-92; format: cell-based; settings: HOP-92, NSC Lung
NCI-H226 = format: cell-based, human; settings: NCI-H226, NSC Lung
NCI-H23 = format: cell-based, human; settings: NCI-H23, NSC Lung
NCI-H460 = format: cell-based, human; settings: NCI-H460, NSC Lung
NCI-H522 = format: cell-based, human; settings: NCI-H522, NSC Lung
COLO 205 = experiment: NCI human cancer cell line growth inhibition: COLO 205; format: cell-based; settings: COLO 205, Colon
HCC-2998 = experiment: NCI human cancer cell line growth inhibition: HCC-2998; format: cell-based; settings: HCC-2998, Colon
HCT-116 = experiment: NCI human cancer cell line growth inhibition: HCT-116; format: cell-based; settings: HCT-116, Colon
HCT-15 = experiment: NCI human cancer cell line growth inhibition: HCT-15; format: cell-based; settings: HCT-15, Colon
HT29 = experiment: NCI human cancer cell line growth inhibition: HT29; format: cell-based; settings: HT29, Colon
KM12 = experiment: NCI human cancer cell line growth inhibition: KM12; format: cell-based; settings: KM12, Colon
SW-620 = experiment: NCI human cancer cell line growth inhibition: SW-620; format: cell-based; settings: SW-620, Colon
SF-268 = experiment: NCI human cancer cell line growth inhibition: SF-268; format: cell-based; settings: SF-268, CNS
SF-295 = experiment: NCI human cancer cell line growth inhibition: SF-295; format: cell-based; settings: SF-295, CNS
SF-539 = experiment: NCI human cancer cell line growth inhibition: SF-539; format: cell-based; settings: SF-539, CNS
SNB-19 = experiment: NCI human cancer cell line growth inhibition: SNB-19; format: cell-based; settings: SNB-19, CNS
SNB-75 = experiment: NCI human cancer cell line growth inhibition: SNB-75; format: cell-based; settings: SNB-75, CNS
U251 = experiment: NCI human cancer cell line growth inhibition: U251; format: cell-based; settings: U251, CNS
PC-3 = experiment: NCI human cancer cell line growth inhibition: PC-3; format: cell-based; settings: PC-3, Prostate
DU-145 = experiment: NCI human cancer cell line growth inhibition: DU-145; format: cell-based; settings: DU-145, Prostate
LOX IMVI = experiment: NCI human cancer cell line growth inhibition: LOX IMVI; format: cell-based; settings: Melanoma
MALME-3M = experiment: NCI human cancer cell line growth inhibition: MALME-3M; format: cell-based; settings: Melanoma
MI4 = experiment: NCI human cancer cell line growth inhibition: MI4; format: cell-based; settings: MI4, Melanoma
SK-MEL-2 = experiment: NCI human cancer cell line growth inhibition: SK-MEL-2; format: cell-based; settings: SK-MEL-2, Melanoma
SK-MEL-28 = experiment: NCI human cancer cell line growth inhibition: SK-MEL-28; format: cell-based; settings: SK-MEL-28, Melanoma
SK-MEL-5 = experiment: NCI human cancer cell line growth inhibition: SK-MEL-5; format: cell-based; settings: SK-MEL-5, Melanoma
UACC-257 = experiment: NCI human cancer cell line growth inhibition: UACC-257; format: cell-based; settings: UACC-257, Melanoma
UACC-62 = experiment: NCI human cancer cell line growth inhibition: UACC-62; format: cell-based; settings: UACC-62, Melanoma
IGROVI = experiment: NCI human cancer cell line growth inhibition: IGROVI; format: cell-based; settings: Ovarian
OVCAR-3 = experiment: NCI human cancer cell line growth inhibition: OVCAR-3; format: cell-based; settings: OVCAR-3, Ovarian
OVCAR-4 = experiment: NCI human cancer cell line growth inhibition: OVCAR-4; format: cell-based; settings: OVCAR-4, Ovarian
OVCAR-5 = experiment: NCI human cancer cell line growth inhibition: OVCAR-5; format: cell-based; settings: OVCAR-5, Ovarian
OVCAR-8 = experiment: NCI human cancer cell line growth inhibition: OVCAR-8; format: cell-based; settings: OVCAR-8, Ovarian
SK-OV-3 = experiment: NCI human cancer cell line growth inhibition: SK-OV-3; format: cell-based; settings: SK-OV-3, Ovarian
786-0 = experiment: NCI human cancer cell line growth inhibition: 786-0; format: cell-based; settings: 786-0, Renal
A498 = experiment: NCI human cancer cell line growth inhibition: A498; format: cell-based; settings: A498, Renal
ACHN = experiment: NCI human cancer cell line growth inhibition: ACHN; format: cell-based; settings: Renal
CAKI-1 = experiment: NCI human cancer cell line growth inhibition: CAKI-1; format: cell-based; settings: CAKI-1, Renal
RXF-393 = experiment: NCI human cancer cell line growth inhibition: RXF-393; format: cell-based; settings: RXF-393, Renal
SN12C = experiment: NCI human cancer cell line growth inhibition: SN12C; format: cell-based; settings: Renal
TK-10 = experiment: NCI human cancer cell line growth inhibition: TK-10; format: cell-based; settings: TK-10, Renal
UO-31 = experiment: NCI human cancer cell line growth inhibition: UO-31; format: cell-based; settings: UO-31, Renal
MCF7 = experiment: NCI human cancer cell line growth inhibition: MCF7; format: cell-based; settings: MCF7, Breast
NCI/ADR-RES = format: cell-based, human; settings: Breast
MDA-MB-231/ATCC = experiment: NCI human cancer cell line growth inhibition: MDA-MB-231/ATCC; format: cell-based; settings: Breast
MDA-MB-435 = experiment: NCI human cancer cell line growth inhibition: MDA-MB-435; format: cell-based; settings: MDA-MB-435, Breast
MDA-N = experiment: NCI human cancer cell line growth inhibition: MDA-N; format: cell-based; settings: Breast
BT-549 = experiment: NCI human cancer cell line growth inhibition: BT-549; format: cell-based; settings: BT-549, Breast
T-47D = experiment: NCI human cancer cell line growth inhibition: T-47D; format: cell-based; settings: Breast
HS 578T = experiment: NCI human cancer cell line growth inhibition: HS 578T; format: cell-based; settings: Breast

CCC/C=C/C=C/C(=O)O[C@H]1/C(=C/C(=O)OC)C[C@H]2C[C@H]([C@@H](C)O)OC(=O)C[C@H](O)C[C@@H]3C[C@H](OC(C)=O)C(C)(C)[C@](O)(C[C@@H]4C/C(=C/C(=O)OC)C[C@H](/C=C/C(C)(C)[C@]1(O)O2)O4)O3 [Bryo-1, reference compound]
Growth inhibition (GI50) (CCRF-CEM): −5.30 log of molar concentration
Growth inhibition (GI50) (HL-60(TB)): −5.70 log of molar concentration
Growth inhibition (GI50) (K-562): −5.40 log of molar concentration
Growth inhibition (GI50) (MOLT-4): −5.50 log of molar concentration
Growth inhibition (GI50) (RPMI-8226): >−5 log of molar concentration
Growth inhibition (GI50) (SR): >−5 log of molar concentration
Growth inhibition (GI50) (A549/ATCC): −5.20 log of molar concentration
Growth inhibition (GI50) (EKVX): −5.30 log of molar concentration
Growth inhibition (GI50) (HOP-62): >−5 log of molar concentration
Growth inhibition (GI50) (HOP-92): −5.30 log of molar concentration
Growth inhibition (GI50) (NCI-H226): >−5 log of molar concentration
Growth inhibition (GI50) (NCI-H23): >−5 log of molar concentration
Growth inhibition (GI50) (NCI-H460): −5.60 log of molar concentration
Growth inhibition (GI50) (NCI-H522): >−5 log of molar concentration
Growth inhibition (GI50) (COLO 205): −5.40 log of molar concentration
Growth inhibition (GI50) (HCC-2998): −5.30 log of molar concentration
Growth inhibition (GI50) (HCT-116): −5.30 log of molar concentration
Growth inhibition (GI50) (HCT-15): >−5 log of molar concentration
Growth inhibition (GI50) (HT29): −5.30 log of molar concentration
Growth inhibition (GI50) (KM12): −5.20 log of molar concentration
Growth inhibition (GI50) (SW-620): −5.50 log of molar concentration
Growth inhibition (GI50) (SF-268): −5.10 log of molar concentration
Growth inhibition (GI50) (SF-295): −5.20 log of molar concentration
Growth inhibition (GI50) (SF-539): >−5 log of molar concentration
Growth inhibition (GI50) (SNB-19): >−5 log of molar concentration
Growth inhibition (GI50) (SNB-75): −5.50 log of molar concentration
Growth inhibition (GI50) (U251): −5.10 log of molar concentration
Growth inhibition (GI50) (PC-3): −5.30 log of molar concentration
Growth inhibition (GI50) (DU-145): >−5 log of molar concentration
Growth inhibition (GI50) (LOX IMVI): −5.10 log of molar concentration
Growth inhibition (GI50) (MALME-3M): −5.20 log of molar concentration
Growth inhibition (GI50) (MI4): >−5 log of molar concentration
Growth inhibition (GI50) (SK-MEL-2): −5.20 log of molar concentration
Growth inhibition (GI50) (SK-MEL-28): −5.10 log of molar concentration
Growth inhibition (GI50) (SK-MEL-5): −5.70 log of molar concentration
Growth inhibition (GI50) (UACC-257): −5.10 log of molar concentration
Growth inhibition (GI50) (UACC-62): −5.30 log of molar concentration
Growth inhibition (GI50) (IGROVI): −5.30 log of molar concentration
Growth inhibition (GI50) (OVCAR-3): −5.10 log of molar concentration
Growth inhibition (GI50) (OVCAR-4): −5.50 log of molar concentration
Growth inhibition (GI50) (OVCAR-5): >−5 log of molar concentration
Growth inhibition (GI50) (OVCAR-8): −5.10 log of molar concentration
Growth inhibition (GI50) (SK-OV-3): −5.10 log of molar concentration
Growth inhibition (GI50) (786-0): −5.20 log of molar concentration
Growth inhibition (GI50) (A498): >−5 log of molar concentration
Growth inhibition (GI50) (ACHN): −5.50 log of molar concentration
Growth inhibition (GI50) (CAKI-1): −5.40 log of molar concentration
Growth inhibition (GI50) (RXF-393): −5.30 log of molar concentration
Growth inhibition (GI50) (SN12C): −5.10 log of molar concentration
Growth inhibition (GI50) (TK-10): >−5 log of molar concentration
Growth inhibition (GI50) (UO-31): −5.60 log of molar concentration
Growth inhibition (GI50) (MCF7): −5.20 log of molar concentration
Growth inhibition (GI50) (NCI/ADR-RES): >−5 log of molar concentration
Growth inhibition (GI50) (MDA-MB-231/ATCC): −5.20 log of molar concentration
Growth inhibition (GI50) (MDA-MB-435): −5.10 log of molar concentration
Growth inhibition (GI50) (MDA-N): −5.10 log of molar concentration
Growth inhibition (GI50) (BT-549): −5.10 log of molar concentration
Growth inhibition (GI50) (T-47D): −5.20 log of molar concentration
Growth inhibition (GI50) (HS 578T): −5.2 log of molar concentration
